Assay results from patent US20230130102A1, “Na/K-ATPase LIGANDS AND USE THEREOF FOR TREATMENT OF CANCER” (Marshall University Research Corporation, priority 2019, published 2023).
Entries after “also recorded” stand apart in the source; their conditions may differ.

What was measured:
[1] = test system: EGF or dopamine induced ERK activation; test: EGF- or dopamine-induced ERK activation in LLC-PK1 cells; format: cell-based, pig
Procedure: Western blot, Immunoprecipitation and Immunostaining. Cells were grown to 100% confluency and Western blot were performed as described before. Images were quantified with ImageJ software from NIH. Immunoprecipitation studies were performed as described before. α1 NKA immunostaining was performed by growing cells on sterilized coverslips in 6 well tissue culture plates and permeabilization/fixation with ice-cold methanol followed by blocking with 5% horse serum and 0.1% Triton X-100 in 1× Phosphate buffered saline (PBS) for 30 minutes. Coverslips were then stained with an anti-α1 NKA antibody (Millipore, Cat #05-369) at 1:100 dilution in 1% BSA (Bovine Serum Albumin) containing 1×PBS solution for overnight. Next day after three washes, coverslips were stained with Alexa Fluor 488 conjugated anti-mouse secondary antibody (Thermo-Fisher) for 1 hour, washed extensively and then imaged using a fluorescent microscope with GFP filter or confocal microscope (LEICA-DMIRE2). E-cadherin and occludin immunostaining was performed in a similar manner. Phospho-Src, phospho ERK1/2 immunostaining were performed as described before and images were taken with a LEICA DMIRE2 confocal microscope. […]

[2] = target: T1, YFP-tagged α1 NKA (Rattus norvegicus, UniProt P06685); test: ouabain-induced α1 NKA endocytosis in YFP-α1-TCN cells; format: cell-based; details: YFP-α1-TCN cells, pretreatment
T1 construct: expressed in transfected cells; host or cells: YFP-α1-TCN cells
Procedure: It is appreciated that ouabain induces Src/ERK activation (increased protein phosphorylation) of LLC-PK1 cells by binding to α1 NKA and thereby initiates a signaling cascade which results in the endocytosis of the α1 NKA to terminate the signaling.
(§1) α1 NKA endocytosis assay. Endocytosis assay was performed as described before.
Characterization of MB5 activity on the NKA receptor function known as the NKA/Src binary receptor mechanism was conducted in a pig kidney epithelial cells (LLC-PK1)-based platform using immunostaining and Western blot analyses. […] The change of NKA conformation that occurs upon binding of agonists such as ouabain, results in the release and activation of the Src kinase domain from the “Naktide” site of NKA CD3, while the other interaction (constitutive) persists between NKA CD2 and the SH2 domain of Src.

[3] = target: T2, α1 NKA (Homo sapiens, UniProt P05023); test: α1 NKA endocytosis (biotinylation assay) in subclone 4; format: cell-based; details: xenograft derived clone 4
T2 construct: endogenous in cells; host or cells: subclone 4 (from DU145 α1 NKA knockdown xenograft)
Procedure: as §1

[4] = test system: PC3 cells; test: Western blot and cell fractionation in PC3 cells; format: cell-based, human; details: PC3, 72-120 hours of treatment
Procedure: Western blot, Immunoprecipitation and Immunostaining. Cells were grown to 100% confluency and Western blot were performed as described before. Images were quantified with ImageJ software from NIH. Immunoprecipitation studies were performed as described before. α1 NKA immunostaining was performed by growing cells on sterilized coverslips in 6 well tissue culture plates and permeabilization/fixation with ice-cold methanol followed by blocking with 5% horse serum and 0.1% Triton X-100 in 1× Phosphate buffered saline (PBS) for 30 minutes. Coverslips were then stained with an anti-α1 NKA antibody (Millipore, Cat #05-369) at 1:100 dilution in 1% BSA (Bovine Serum Albumin) containing 1×PBS solution for overnight. Next day after three washes, coverslips were stained with Alexa Fluor 488 conjugated anti-mouse secondary antibody (Thermo-Fisher) for 1 hour, washed extensively and then imaged using a fluorescent microscope with GFP filter or confocal microscope (LEICA-DMIRE2). E-cadherin and occludin immunostaining was performed in a similar manner. Phospho-Src, phospho ERK1/2 immunostaining were performed as described before and images were taken with a LEICA DMIRE2 confocal microscope.

[5] = test system: A425P and Y260A cells; test: basal ERK activation in Src binding mutant Y260A and A425P cells; format: cell-based, pig
Procedure: Characterization of MB5 activity on the NKA receptor function known as the NKA/Src binary receptor mechanism was conducted in a pig kidney epithelial cells (LLC-PK1)-based platform using immunostaining and Western blot analyses. […] The change of NKA conformation that occurs upon binding of agonists such as ouabain, results in the release and activation of the Src kinase domain from the “Naktide” site of NKA CD3, while the other interaction (constitutive) persists between NKA CD2 and the SH2 domain of Src. […] In LLC-PK1-derived cells with low NKA receptor constitutive activity due to substantial reduction (over 80%) of α1 NKA expression by siRNA (PY17 cells), increased basal Src and ERK activity is observed due to the abnormally high amount of Src kinase that remains in an active conformation. Increased basal Src and ERK activity is also observed in LLC-PK1-derived cells with reduced NKA receptor constitutive activity that result from mutations in either domain of interaction with Src without alteration of the ion pumping activity (e.g. A425P on the Naktide sequence, or Y260A on the CD2 domain).

[6] = test system: DU145 or α1 knockdown cells (KD) xenograft; test: tumor xenograft of DU145 or α1 KD cells in NOD/SCID mice; format: in vivo, mouse
Procedure: Mice studies. Animal protocols were approved by an Institutional Animal Care and Use Committee (IACUC) according to NIH guidelines. Tumor xenografts were established by subcutaneous injection of 5×10^6 cancer cells into the left and right flanks of 10-week-old male NOD/SCID mice (Charles River). Tumor length (L) and width (W) were measured with calipers weekly and tumor volume was estimated as V=(L×W^2)/2. After the tumor volumes reached approximately 100 mm^3, mice were sacrificed and tumors were harvested. Half of the tumors were used for protein extraction and the other half were digested with collagenase I solution (SIGMA) to isolate cancer cells.
For MB5 treatment, after tumor volume reached approximately 100 mm^3, mice were injected peritoneally with DMSO or MB5 at 20 mg/kg or 10 mg/kg daily and further monitored for tumor growth weekly. At the end of treatment period (about 2-3 weeks), tumors were harvested and tumor lysates were analyzed for protein expression by Western blot.
The therapeutic potential of MB5 in a tumor xenograft model was first tested by injecting DU145 or corresponding α1 knockdown cells (KD) into the right or left flank of 10-week-old NOD/SCID mice. The tumor growth was monitored twice weekly. Once the tumors reached a volume of approximately 100 mm^3, the animals received daily injections of MB5 at 20 mg/kg intraperitoneally for 3.5 weeks. […] Next, it was determined whether MB5 could decrease tumor growth of highly aggressive subclones derived from DU145. […] FIG. 26E summarizes the effect of MB5 treatment on all types of xenografted tumor growth from DU145 and derivative cell lines.

[7] = test system: DU145 derived subclones; test: Western blot / immunostaining of EMT markers, Src/FAK activation and proliferation markers in DU145 derived subclones; format: cell-based, human; details: subclone 2 cells, 1 μM, 24 hours

O=c1c2cccc(O)c2oc2c(O)c(O)ccc12 [MB5]
EGF-induced ERK activation [1]: did not inhibit; also recorded: failed to inhibit; also recorded: did not affect EGF-induced ERK activation | dopamine-induced ERK activation [1]: did not inhibit; also recorded: failed to inhibit; also recorded: did not affect dopamine-induced activation of ERK | inhibition of ouabain-induced α1 NKA endocytosis [2]: able to inhibit ouabain-induced α1 NKA endocytosis; also recorded: potent inverse agonist of ouabain-induced α1 NKA endocytosis; also recorded: inhibited ouabain-induced α1 NKA endocytosis in a concentration dependent manner | α1 NKA endocytosis [3]: abolished α1 NKA endocytosis; also recorded: significantly reduced α1 NKA endocytosis | EMT phenotype [4]: reversed the EMT phenotype | Src activation [4]: decreased Src activation | α1 NKA expression [4]: significantly increased α1 NKA expression | basal ERK phosphorylation [5]: did not reduce high levels of ERK phosphorylation | reduction of tumor growth ([6]; 20 mg/kg daily intraperitoneally for 3.5 weeks, DU145 and KD groups): about 70% | bodyweight ([6]; 20 mg/kg, NOD/SCID mice): without significantly affecting bodyweight | tumor growth ([6]; 20 mg/kg/day, DU145 or KD cells): reduces tumor growth | tumor growth ([6]; all tested cell lines xenografted into NOD/SCID mice): significantly reduced tumor growth from all tested cell lines | E-cadherin and occludin expression (immunostaining) [7]: Increase in E-cadherin and occludin expression
